Assay results: patent US20110136792A1, “NOVEL CARBOXYLIC ACID ANALOGS AS GLYCOGEN SYNTHASE ACTIVATORS” (priority 2009, published 2011)

Tested on: glycogen synthase
Assay: Glycogen Synthase (GS) Assay
Format: biochemical
Details: coupled pyruvate kinase/lactate dehydrogenase assay, absorbance at 340 nm; for EC50: compound concentration needed to give 50% maximum activation; for GS SC200: compound concentration needed to stimulate 200% of the enzyme activity
Method: The following tests were carried out in order to determine the activity of the compounds of formula (I).
Twelve μL per well of substrate solution containing glycogen (4.32 mg/ml), 2.67 mM UDP-glucose, 21.6 mM phospho(enol)pyruvate and 2.7 mM NADH in 30 mM glycylglycine, pH 7.3 buffer was added into a polystyrene 384-well assay plate (BD Biosciences).
Compound solutions (8 μL/well) at various concentrations (0-300 μM) were added to the assay plate (columns 5-24). Compound solution contains 30 mM glycylglycine, pH 7.3, 40 mM KCl, 20 mM MgCl2, 9.2% DMSO, with (columns 15-24) or without (columns 5-14) 20 mM glucose 6-phosphate.
Enzyme solution (12 μL/well) containing glycogen synthase (16.88 μg/ml), pyruvate kinase (0.27 mg/ml), lactate dehydrogenase (0.27 mg/ml) in 50 mM Tris-HCl, pH 8.0, 27 mM DTT and bovine serum albumin (BSA, 0.2 mg/ml) was added to the assay plate (columns 3-24). As a blank control, enzyme solution without glycogen synthase was added into the top half wells of columns 1-2. To the bottom half wells of columns 1-2 were added a known activator, glucose 6-phosphate (at final concentration 5 mM) in addition to the enzyme solution. The reaction mixture was incubated at room temperature. The assay plate was then read for absorbance at 340 nm on an Envision reader every 3 minutes up to a total of 15 minutes.
The enzyme activity (with or without compound) was calculated by the reaction rate and represented by the optical density change (δOD) per minute. Percent stimulation of glycogen synthase activity by a compound at various concentrations was calculated by the following formula: […]
Where Rs is the reaction rate of the enzyme in the presence of compound and Rt is the reaction rate of the enzyme in the absence of compound.
SC200 is defined as the compound concentration that is needed to stimulate 200% of the enzyme activity. EC50 is defined as the compound concentration that is needed to give 50% maximum activation.
Compounds from Examples 1 through Example 64 were assayed according to assay procedures described above and the result is listed in Table 1 below: […]

COc1cc(F)c(F)cc1-c1ccc(OCc2cccc(CN3[C@@H](C(=O)O)CCCS3(=O)=O)c2)cc1 [Example 55, (R)-2-[3-(4′,5′-Difluoro-2′-methoxy-biphenyl-4-yloxymethyl)-benzyl]-1,1-dioxo-1lambda*6*-[1,2]thiazinane-3-carboxylic acid]
EC50: 330 nM | GS SC200: 0.16 µM

O=C(O)CN(Cc1cccc(COc2ccc(-c3ccc(F)cc3F)cc2)c1)C(=O)c1ccccn1 [Example 16, [[3-(2′,4′-Difluoro-biphenyl-4-yloxymethyl)-benzyl]-(pyridine-2-carbonyl)-amino]-acetic acid]
EC50: 1540 nM | GS SC200: 0.43 µM

O=C(O)[C@@H]1CCC(=O)N1Cc1cccc(COc2ccc(-c3cc(F)c(F)cc3F)cc2)c1 [Example 53, (S)-5-Oxo-1-[3-(2′,4′,5′-trifluoro-biphenyl-4-yloxymethyl)-benzyl]-pyrrolidine-2-carboxylic acid]
EC50: 130 nM | GS SC200: 0.03 µM

Cn1ccnc1C(=O)N(CC(=O)O)Cc1cccc(COc2ccc(-c3ccc(F)cc3F)cc2)c1 [Example 14, [[3-(2′,4′-Difluoro-biphenyl-4-yloxymethyl)-benzyl]-(1-methyl-imidazole-2-carbonyl)-amino]-acetic acid]
EC50: 1310 nM | GS SC200: 0.15 µM

COc1cc(F)c(F)cc1-c1ccc(OCc2cccc(CN(CC(=O)O)S(C)(=O)=O)c2)cc1 [Example 10, {[3-(4′,5′-Difluoro-2′-methoxy-biphenyl-4-yloxymethyl)-benzyl]-methanesulfonyl-amino}-acetic acid]
EC50: 290 nM | GS SC200: 0.03 µM

COc1cc(F)c(F)cc1-c1ccc(OCc2cccc(CN3[C@H](C(=O)O)CCCS3(=O)=O)c2)cc1 [Example 56, (S)-2-[3-(4′,5′-Difluoro-2′-methoxy-biphenyl-4-yloxymethyl)-benzyl]-1,1-dioxo-1lambda*6*-[1,2]thiazinane-3-carboxylic acid]
EC50: 110 nM | GS SC200: 0.04 µM

Cc1cc(F)c(F)cc1-c1ccc(OCc2cccc(CN3[C@@H](C(=O)O)CCS3(=O)=O)c2)cc1 [Example 49, (R)-2-[3-(4′,5′-Difluoro-2′-methyl-biphenyl-4-yloxymethyl)-benzyl]-1,1-dioxo-1lambda*6*-isothiazolidine-3-carboxylic acid]
EC50: 890 nM | GS SC200: 0.35 µM

Cc1cc(F)c(F)cc1-c1ccc(OCc2cccc(CN3[C@H](C(=O)O)CCS3(=O)=O)c2)cc1 [Example 48, (S)-2-[3-(4′,5′-Difluoro-2′-methyl-biphenyl-4-yloxymethyl)-benzyl]-1,1-dioxo-1lambda*6*-isothiazolidine-3-carboxylic acid]
EC50: 110 nM | GS SC200: 0.01 µM

COc1cc(F)c(F)cc1-c1ccc(OCc2cccc(CN(CC(=O)O)C(=O)C3CCN(C)CC3)c2)cc1 [Example 32, [[3-(4′,5′-Difluoro-2′-methoxy-biphenyl-4-yloxymethyl)-benzyl]-(1-methyl-piperidine-4-carbonyl)-amino]-acetic acid]
EC50: 610 nM | GS SC200: 0.07 µM

COc1cc(F)c(F)cc1-c1ccc(OCc2cccc(CN(CC(=O)O)C(=O)CC3CC3)c2)cc1 [Example 24, {(2-Cyclopropyl-acetyl)-[3-(4′,5′-difluoro-2′-methoxy-biphenyl-4-yloxymethyl)-benzyl]-amino}-acetic acid]
EC50: 730 nM | GS SC200: 0.12 µM

COc1cc(F)c(F)cc1-c1ccc(OCc2cccc(CNCC(=O)O)c2)cc1.Cl [Example 37, [3-(4′,5′-Difluoro-2′-methoxy-biphenyl-4-yloxymethyl)-benzylamino]-acetic acid]
EC50: 4900 nM | GS SC200: 0.38 µM

CCN(CC(=O)O)Cc1cccc(COc2ccc(-c3cc(F)c(F)cc3OC)cc2)c1 [Example 36, {[3-(4′,5′-Difluoro-2′-methoxy-biphenyl-4-yloxymethyl)-benzyl]-ethyl-amino}-acetic acid]
EC50: 1930 nM | GS SC200: 0.50 µM

COc1cc(F)c(F)cc1-c1ccc(OCc2cccc(CN(CC(=O)O)C(=O)[C@@H]3CCCO3)c2)cc1 [Example 25, [[3-(4′,5′-Difluoro-2′-methoxy-biphenyl-4-yloxymethyl)-benzyl]-((S)-tetrahydro-furan-2-carbonyl)-amino]-acetic acid]
EC50: 410 nM | GS SC200: 0.07 µM

COCC(C)C(=O)N(CC(=O)O)Cc1cccc(COc2ccc(-c3ccc(F)cc3F)cc2)c1 (stereo not shown) [Example 17, [[3-(2′,4′-Difluoro-biphenyl-4-yloxymethyl)-benzyl]-(3-methoxy-2-methyl-propionyl)-amino]-acetic acid]
EC50: 1530 nM | GS SC200: 0.36 µM

COCC(=O)N(CC(=O)O)Cc1cccc(COc2ccc(-c3cc(F)c(F)cc3OC)cc2)c1 [Example 28, [[3-(4′,5′-Difluoro-2′-methoxy-biphenyl-4-yloxymethyl)-benzyl]-(2-methoxy-acetyl)-amino]-acetic acid]
EC50: 410 nM | GS SC200: 0.06 µM

COc1cc(F)c(F)cc1-c1ccc(OCc2cccc(CN(CC(=O)O)C(=O)C3CC3)c2)cc1 [Example 22, {Cyclopropanecarbonyl-[3-(4′,5′-difluoro-2′-methoxy-biphenyl-4-yloxymethyl)-benzyl]-amino}-acetic acid]
EC50: 260 nM | GS SC200: 0.03 µM

O=C(O)CN(Cc1cccc(COc2ccc(-c3ccc(F)cc3F)cc2)c1)C(=O)C1CC1 [Example 12, {Cyclopropanecarbonyl-[3-(2′,4′-difluoro-biphenyl-4-yloxymethyl)-benzyl]-amino}-acetic acid]
EC50: 4310 nM | GS SC200: 0.75 µM

O=C(O)C1CCS(=O)(=O)N1Cc1ccc(F)c(COc2ccc(-c3ccc(F)cc3F)cc2)c1 (stereo not shown) [Example 41, 2-[3-(2′,4′-Difluoro-biphenyl-4-yloxymethyl)-4-fluoro-benzyl]-1,1-dioxo-1lambda*6*-isothiazolidine-3-carboxylic acid]
EC50: 150 nM | GS SC200: 0.07 µM

COc1cc(F)c(F)cc1-c1ccc(OCc2cncc(CN3C(C(=O)O)CCS3(=O)=O)c2)cc1 (stereo not shown) [Example 63, 2-[5-(4′,5′-Difluoro-2′-methoxy-biphenyl-4-yloxymethyl)-pyridin-3-ylmethyl]-1,1-dioxo-1lambda*6*-isothiazolidine-3-carboxylic acid]
EC50: 550 nM | GS SC200: 0.01 µM

COc1cc(F)c(F)cc1-c1ccc(OCc2cccc(CN(CC(=O)O)C(=O)c3ccccc3)c2)cc1 [Example 5, {Benzoyl-[3-(4′,5′-difluoro-2′-methoxy-biphenyl-4-yloxymethyl)-benzyl]-amino}-acetic acid]
EC50: 450 nM | GS SC200: 0.09 µM

COc1cc(F)c(F)cc1-c1ccc(OCc2cccc(CN(CC(=O)O)C(=O)CC(C)C)c2)cc1 [Example 2, [[3-(4′,5′-Difluoro-2′-methoxy-biphenyl-4-yloxymethyl)-benzyl]-(3-methyl-butyryl)-amino]-acetic acid]
EC50: 1080 nM | GS SC200: 0.13 µM

COc1cc(F)c(F)cc1-c1ccc(OCc2cccc(CN(CC(=O)O)C(=O)c3cn(C)cn3)c2)cc1 [Example 29, [[3-(4′,5′-Difluoro-2′-methoxy-biphenyl-4-yloxymethyl)-benzyl]-(1-methyl-1H-imidazole-4-carbonyl)-amino]-acetic acid]
EC50: 340 nM | GS SC200: 0.01 µM

COc1cc(F)c(F)cc1-c1ccc(OCc2cccc(CN(CC(=O)O)C(=O)N3CCOCC3)c2)cc1 [Example 3, [[3-(4′,5′-Difluoro-2′-methoxy-biphenyl-4-yloxymethyl)-benzyl]-(morpholine-4-carbonyl)-amino]-acetic acid]
EC50: 690 nM | GS SC200: 0.11 µM

O=C(O)[C@@H]1CCS(=O)(=O)N1Cc1cccc(COc2ccc(-c3cc(F)c(F)cc3Cl)cc2)c1 [Example 51, (S)-2-[3-(2′-Chloro-4′,5′-difluoro-biphenyl-4-yloxymethyl)-benzyl]-1,1-dioxo-1lambda*6*-isothiazolidine-3-carboxylic acid]
EC50: 100 nM | GS SC200: 0.03 µM

O=C(O)[C@H]1CCCS(=O)(=O)N1Cc1cccc(COc2ccc(-c3cc(F)c(F)cc3F)cc2)c1 [Example 57, (R)-1,1-Dioxo-2-[3-(2′,4′,5′-trifluoro-biphenyl-4-yloxymethyl)-benzyl]-1lambda*6*-[1,2]thiazinane-3-carboxylic acid]
EC50: 2340 nM | GS SC200: 1.22 µM

COc1cc(F)c(F)cc1-c1ccc(OCc2cccc(CN3[C@@H](C(=O)O)CCS3(=O)=O)c2)cc1 [Example 44, (R)-2-[3-(4′,5′-Difluoro-2′-methoxy-biphenyl-4-yloxymethyl)-benzyl]-1,1-dioxo-1lambda*6*-isothiazolidine-3-carboxylic acid]
EC50: 380 nM | GS SC200: 0.09 µM
